Source: PubChem BioAssay AID248 (DTP/NCI, 2004)
Where “and” joins values, the source holds several entries; their conditions need not be identical. Equal entries are not always repeated. Toxic doses and inconclusive results are not listed. Rule as the data show it: active = T/C of 150% or more; inactive = T/C below 125%.

Test system: L1210 leukemia ip in BDF1 mice, survival T/C
Experiment: NCI In Vivo Anticancer Drug Screen. Data for tumor model L1210 Leukemia (intraperitoneal) in B6D2F1 (BDF1) mice
Conditions: endpoint: mean survival time, higher = longer survival
Outline: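 Read-out is survival time, reported as the treated-group measurement over the vehicle-control measurement.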

[1] = dose: 100.0 mg/kg/injection, schedule: Q01DX001 (ip), vehicle: carboxymethylcellulose (CMC)
[2] = dose: 200.0 mg/kg/injection, schedule: Q01DX001 (ip), vehicle: carboxymethylcellulose (CMC)
[3] = dose: 400.0 mg/kg/injection, schedule: Q01DX001 (ip), vehicle: carboxymethylcellulose (CMC)
[4] = dose: 100.0 mg/kg/injection, schedule: Q01DX009 (ip), vehicle: saline with Tween-80
[5] = dose: 100.0 mg/kg/injection, schedule: Q04DX003 (ip), vehicle: saline with Tween-80
[6] = dose: 200.0 mg/kg/injection, schedule: Q01DX009 (ip), vehicle: saline with Tween-80
[7] = dose: 200.0 mg/kg/injection, schedule: Q04DX003 (ip), vehicle: saline with Tween-80
[8] = dose: 400.0 mg/kg/injection, schedule: Q04DX003 (ip), vehicle: saline with Tween-80
[9] = dose: 100.0 mg/kg/injection, schedule: Q04DX003 (ip), vehicle: saline
[10] = dose: 200.0 mg/kg/injection, schedule: Q04DX003 (ip), vehicle: saline
[11] = dose: 400.0 mg/kg/injection, schedule: Q04DX003 (ip), vehicle: saline
[12] = dose: 50.0 mg/kg/injection, schedule: Q01DX009 (ip), vehicle: saline
[13] = dose: 100.0 mg/kg/injection, schedule: Q01DX009 (ip), vehicle: saline
[14] = dose: 200.0 mg/kg/injection, schedule: Q01DX009 (ip), vehicle: saline
[15] = dose: 100.0 mg/kg/injection, schedule: Q01DX009 (ip), vehicle: Klucel (hydroxypropylcellulose) (HPC)
[16] = dose: 200.0 mg/kg/injection, schedule: Q01DX009 (ip), vehicle: Klucel (hydroxypropylcellulose) (HPC)
[17] = dose: 400.0 mg/kg/injection, schedule: Q01DX009 (ip), vehicle: Klucel (hydroxypropylcellulose) (HPC)
[18] = dose: 100.0 mg/kg/injection, schedule: Q04DX003 (ip), vehicle: Klucel (hydroxypropylcellulose) (HPC)
[19] = dose: 200.0 mg/kg/injection, schedule: Q04DX003 (ip), vehicle: Klucel (hydroxypropylcellulose) (HPC)
[20] = dose: 400.0 mg/kg/injection, schedule: Q04DX003 (ip), vehicle: Klucel (hydroxypropylcellulose) (HPC)

Measured: T/C

CC1OC(n2ccc(NC(=O)c3ccc(NC(=O)C(C)(N)CO)cc3)nc2=O)CCC1OC1OC(C)C(N(C)C)C(O)C1O (centres undefined)
inactive: [1] 106 % of control | [2] 100 % of control | [3] 106 % of control

COc1cc(C=Nc2cccc(C(=O)O)c2)ccc1N(CCCl)CCCl
inactive: dose: 50.0 mg/kg/injection, schedule: Q01DX001 (ip), vehicle: carboxymethylcellulose (CMC) 117 % of control

CC(=O)CCCC(C)C1CCC2C3CC=C4CC(O)CCC4(C)C3CCC12C (centres undefined)
inactive: dose: 75.0 mg/kg/injection, schedule: Q01DX009 (sc), vehicle: steriod suspending solution 99 % of control | dose: 100.0 mg/kg/injection, schedule: Q01DX001 (sc), vehicle: steriod suspending solution 105 % of control | dose: 150.0 mg/kg/injection, schedule: Q01DX009 (sc), vehicle: steriod suspending solution 94 % of control | dose: 200.0 mg/kg/injection, schedule: Q01DX001 (sc), vehicle: steriod suspending solution 101 % of control | dose: 300.0 mg/kg/injection, schedule: Q01DX009 (sc), vehicle: steriod suspending solution 92 % of control | dose: 400.0 mg/kg/injection, schedule: Q01DX001 (sc), vehicle: steriod suspending solution 101 % of control

C#CC1(OCC2CN(c3ccccc3)C(=O)O2)CCCCC1 (centres undefined)
inactive: [4] 106 % of control | [5] 97 % of control | [6] 108 % of control | [7] 105 % of control | dose: 400.0 mg/kg/injection, schedule: Q01DX009 (ip), vehicle: saline with Tween-80 108 % of control | [8] 92 % of control

CC(C)OP(=S)(S)OC(C)C
inactive: [9] 112 % of control | [10] 96 % of control | [11] 102 % of control

COC1(OC)C2(Cl)C=C(c3ccccc3)C1(Cl)C(Cl)=C2Cl (centres undefined)
inactive: [1] 92 % of control | [2] 97 % of control | [3] 94 % of control

COC(=O)Cc1ccc([N+](=O)[O-])cc1[N+](=O)[O-]
inactive: [9] 101 % of control | [10] 102 % of control | [11] 93 % of control

N=c1c2c(N)nc(N)nc2c2ccccc2n1O
inactive: dose: 50.0 mg/kg/injection, schedule: Q04DX002 (ip), vehicle: saline 97 % of control | dose: 100.0 mg/kg/injection, schedule: Q04DX002 (ip), vehicle: saline 104 % of control | dose: 200.0 mg/kg/injection, schedule: Q04DX002 (ip), vehicle: saline 101 % of control

CC(CCCN(CCCl)CCCl)Nc1c2ccccc2nc2c1ccc1ccccc12 (centres undefined)
inactive: dose: 0.15 mg/kg/injection, schedule: Q01DX009 (ip), vehicle: saline 109 % of control | dose: 0.31 mg/kg/injection, schedule: Q01DX009 (ip), vehicle: saline 110 % of control | dose: 0.63 mg/kg/injection, schedule: Q01DX009 (ip), vehicle: saline 122 % of control | dose: 1.25 mg/kg/injection, schedule: Q01DX009 (ip), vehicle: saline 94 % of control | dose: 2.5 mg/kg/injection, schedule: Q01DX009 (ip), vehicle: saline 106 % of control

CC1CC(C)(C)N=C(CC(C)(O)c2ccccn2)O1 (centres undefined)
inactive: dose: 100.0 mg/kg/injection, schedule: Q01DX001 (ip), vehicle: saline sonified 97 % of control | dose: 200.0 mg/kg/injection, schedule: Q01DX001 (ip), vehicle: saline sonified 103 % of control | dose: 400.0 mg/kg/injection, schedule: Q01DX001 (ip), vehicle: saline sonified 100 % of control

CCOC(=O)C(N)=S
inactive: [9] 98 % of control | [10] 96 % of control | [11] 88 % of control

O=C1/C(=C(/c2ccccc2)N2CCOCC2)Cc2ccccc21
inactive: dose: 25.0 mg/kg/injection, schedule: Q04DX003 (ip), vehicle: saline with Tween-80 90 % of control | [5] 95 % of control

O=C(NO)C(=O)NO
inactive: [12] 98 % of control | [13] 113 % of control | dose: 100.0 mg/kg/injection, schedule: Q04DX002 (ip), vehicle: saline with Tween-80 90 % of control | [14] 117 % of control | dose: 200.0 mg/kg/injection, schedule: Q04DX002 (ip), vehicle: saline with Tween-80 107 % of control | dose: 400.0 mg/kg/injection, schedule: Q04DX002 (ip), vehicle: saline with Tween-80 110 % of control

Cc1cccc(C)c1NC(=S)N(C)C
inactive: dose: 25.0 mg/kg/injection, schedule: Q01DX009 (ip), vehicle: saline 101 % of control | [12] 103 % of control | [9] 95 % of control

O=C(O)/C=C\C(=O)Nc1ccccc1Cl
inactive: [15] 102 % of control | [16] 100 % of control | [17] 97 % of control

NC(N)=N/N=C(/c1ccccc1)c1ccc2ccccc2c1
inactive: dose: 60.0 mg/kg/injection, schedule: Q01DX Z (oral), vehicle: methylcellulose (MC) 95 % of control | dose: 120.0 mg/kg/injection, schedule: Q01DX Z (oral), vehicle: methylcellulose (MC) 108 % of control | dose: 240.0 mg/kg/injection, schedule: Q01DX Z (oral), vehicle: methylcellulose (MC) 111 % of control | dose: 480.0 mg/kg/injection, schedule: Q01DX Z (oral), vehicle: methylcellulose (MC) 101 % of control | dose: 720.0 mg/kg/injection, schedule: Q01DX Z (oral), vehicle: methylcellulose (MC) 98 % of control | dose: 840.0 mg/kg/injection, schedule: Q01DX Z (oral), vehicle: methylcellulose (MC) 112 % of control

CN(N=O)c1ccc(N(C)N=O)cc1
inactive: dose: 50.0 mg/kg/injection, schedule: Q01DX009 (ip), vehicle: Klucel (hydroxypropylcellulose) (HPC) 100 % of control | [15] 97 % of control | [18] 96 % of control | [16] 102 % of control | [19] 93 % of control | [17] 92 % of control | [20] 96 % of control

[Br][Sn]([Br])([CH]1CCCCC1)[CH]1CCCCC1
inactive: dose: 9.38 mg/kg/injection, schedule: Q01DX001 (ip), vehicle: other 91 % of control | dose: 18.75 mg/kg/injection, schedule: Q01DX001 (ip), vehicle: other 93 % of control

CCCCCCCCCCCCCCCCCC(=O)OCC(O)COC(C)=O (centres undefined)
inactive: dose: 12.5 mg/kg/injection, schedule: Q01DX009 (ip), vehicle: saline with Tween-80 98 % of control | dose: 25.0 mg/kg/injection, schedule: Q01DX009 (ip), vehicle: saline with Tween-80 95 % of control | dose: 50.0 mg/kg/injection, schedule: Q01DX009 (ip), vehicle: saline with Tween-80 95 % of control | [4] 91 % of control | [6] 91 % of control

CN(/N=C/C(O)C(O)C(O)CO)c1ccccc1 (centres undefined)
inactive: [13] 95 % of control | [5] 102 % of control and 98 % of control | [14] 90 % of control | [7] 93 % of control and 96 % of control | [8] 94 % of control and 96 % of control

CN(C)/C(N)=N/S(=O)(=O)c1ccc(C#N)cc1
inactive: dose: 100.0 mg/kg/injection, schedule: Q01DX001 (ip), vehicle: saline 88 % of control | dose: 200.0 mg/kg/injection, schedule: Q01DX001 (ip), vehicle: saline 96 % of control | dose: 400.0 mg/kg/injection, schedule: Q01DX001 (ip), vehicle: saline 94 % of control

CCNC(=O)N1CCN(c2ccc(Cl)cc2)CC1
inactive: dose: 40.0 mg/kg/injection, schedule: Q04DX003 (ip), vehicle: saline 101 % of control | dose: 75.0 mg/kg/injection, schedule: Q01DX001 (ip), vehicle: saline 97 % of control | dose: 75.0 mg/kg/injection, schedule: Q04DX003 (ip), vehicle: saline 98 % of control | dose: 150.0 mg/kg/injection, schedule: Q01DX001 (ip), vehicle: saline 101 % of control | dose: 150.0 mg/kg/injection, schedule: Q04DX003 (ip), vehicle: saline 95 % of control

O=[N+]([O-])c1cc(S(=O)(=O)O)c(Nc2ccccc2)cc1NCCO
inactive: [18] 91 % of control | [19] 91 % of control | [20] 90 % of control
